The values below come from patent US9085582B2, “Benzotriazolodiazepine compounds inhibitors of bromodomains” (GlaxoSmithKline LLC, priority 2010, dated 2015).

This experiment relates to IL-6. The experiment in a line: Measurement of LPS induced IL-6 secretion from whole blood. It counts as cell-based. Conditions: LPS 200 ng/ml stimulated whole blood, 24 hours, IL-6 by immunoassay. Here is the method:
Measurement of LPS Induced IL-6 Secretion from Whole Blood
Activation of monocytic cells by agonists of toll-like receptors such as bacterial lipopolysaccharide (LPS) results in production of key inflammatory mediators including IL-6. Such pathways are widely considered to be central to the pathophysiology of a range of auto-immune and inflammatory disorders.
Compounds to be tested are diluted to give a range of appropriate concentrations of which 1 ul of the diluted stocks is added to a 96 well plate. Following addition of whole blood (130 ul) the plates are incubated at 37 degrees (5% CO2) for 30 min before the addition of 10 ul of 2.8 ug/ml LPS, diluted in complete RPMI 1640 (final concentration=200 ng/ml), to give a total volume of 140 ul per well. After further incubation for 24 hours at 37 degrees, 140 ul of PBS are added to each well. The plates are sealed, shaken for 10 minutes and then centrifuged (2500 rpm×10 min). 100 ul of the supernatant are removed and IL-6 levels assayed by immunoassay (typically by MesoScale Discovery technology) either immediately or following storage at −20 degrees. Concentration response curves for each compound was generated from the data and an IC50 value was calculated

As usually defined, the IC50 is the point on the concentration scale where inhibition reaches its midpoint. On to `CCNC(=O)C[C@@H]1N=C(c2ccc(Cl)cc2)c2cc(-c3ccccc3)ccc2-n2c(C)nnc21` [Example 1, 2-[(4S)-6-(4-Chlorophenyl)-1-methyl-8-phenyl-4H-[1,2,4]triazolo[4,3-a][1,4]benzodiazepin-4-yl]-N-ethylacetamide], for which the IC50 is ≤ 3.16 µM. As for `CCNC(=O)C[C@@H]1N=C(c2ccc(Cl)cc2)c2cc(-c3ccc(OC)cc3)ccc2-n2c(C)nnc21` [Example 3, 2-{(4S)-6-(4-Chlorophenyl)-1-methyl-8-[4-(methyloxy)phenyl]-4H-[1,2,4]triazolo[4,3-a][1,4]benzodiazepin-4-yl}-N-ethylacetamide], the IC50 was ≤ 3.16 µM. The result for `CCNC(=O)C[C@@H]1N=C(c2ccc(Cl)cc2)c2cc(-c3ccn[nH]3)ccc2-n2c(C)nnc21` [Example 4, 2-[(4S)-6-(4-Chlorophenyl)-1-methyl-8-(1H-pyrazol-5-yl)-4H-[1,2,4]triazolo[4,3-a][1,4]benzodiazepin-4-yl]-N-ethylacetamide] reads ≤ 3.16 µM; that for `CCNC(=O)C[C@@H]1N=C(c2ccc(Cl)cc2)c2cc(-c3cn[nH]c3)ccc2-n2c(C)nnc21` [Example 5, 2-[(4S)-6-(4-Chlorophenyl)-1-methyl-8-(1H-pyrazol-4-yl)-4H-[1,2,4]triazolo[4,3-a][1,4]benzodiazepin-4-yl]-N-ethylacetamide], ≤ 3.16 µM. The figure for `CCNC(=O)C[C@@H]1N=C(c2ccc(Cl)cc2)c2cc(-c3ccc(CN4CCCC4)cc3)ccc2-n2c(C)nnc21` [Example 13, (S)-2-(6-(4-Chlorophenyl)-1-methyl-8-(4-(pyrrolidin-1-ylmethyl)phenyl)-4H-benzo[f][1,2,4]triazolo[4,3-a][1,4]diazepin-4-yl)-N-ethylacetamide] is ≤ 3.16 µM.
